# Source: patent publication US20160166565A1, “TREATMENT OF MULTIPLE SCLEROSIS WITH COMBINATION OF LAQUINIMOD AND FLUPIRTINE” (Teva Pharmaceutical Industries, Ltd., priority 2013, published 2016)
# Like-named read-outs stand apart in the source and are kept apart here.
# Test system: MOG-induced EAE Mice
# Test: MOG-induced EAE in mice, laquinimod alone or in combination with flupirtine
# Assay type: in vivo, mice (C57BL/6)
# Details: oral gavage qd, Day 1 to 30; for inhibition at 30 mg/kg: Mus musculus, vs vehicle
# [1] = 0.5% MC + Flupirtin 30 mg/kg/day
compound,measurement,setting,value
"CCOC(=O)Nc1ccc(NCc2ccc(F)cc2)nc1N [Flupirtin, ethyl {2-amino-6-[(4-fluorobenzyl)amino]pyridin-3-yl}carbamate]",Duration,[1],17.0 days
same,GMS value (group mean score),[1],1.9
same,INC (Incidence),[1],15/15
same,MMS value (mean maximal score),[1],3.1
same,MORT (Mortality),[1],0/15
same,Onset,[1],13.3 days
same,inhibition at 30 mg/kg,"0.5% MC + Flupirtin 30 mg/kg/day, read-out: INH 1 (percent inhibition according to incidence)",0%
same,inhibition at 30 mg/kg,"0.5% MC + Flupirtin 30 mg/kg/day, read-out: INH 2 (percent inhibition according to MMS)",11.4%
same,inhibition at 30 mg/kg,"0.5% MC + Flupirtin 30 mg/kg/day, read-out: INH 3 (percent inhibition / activity according to GMS)",17.4%
"CCN(C(=O)c1c(O)c2c(Cl)cccc2n(C)c1=O)c1ccccc1 [LAQ, 5-chloro-N-ethyl-4-hydroxy-1-methyl-2-oxo-N-phenyl-1,2-dihydroquinoline-3-carboxamide]",Duration,LAQ 1 mg/kg/day + 0.5% MC,16.0 days
same,GMS value (group mean score),LAQ 1 mg/kg/day + 0.5% MC,1.9
same,INC (Incidence),LAQ 1 mg/kg/day + 0.5% MC,15/15
same,MMS value (mean maximal score),LAQ 1 mg/kg/day + 0.5% MC,3.4
same,MORT (Mortality),LAQ 1 mg/kg/day + 0.5% MC,0/15
same,Onset,LAQ 1 mg/kg/day + 0.5% MC,14.8 days
same,Duration,LAQ 5 mg/kg/day + 0.5% MC,14.7 days
same,GMS value (group mean score),LAQ 5 mg/kg/day + 0.5% MC,1.6
same,INC (Incidence),LAQ 5 mg/kg/day + 0.5% MC,14/15
same,MMS value (mean maximal score),LAQ 5 mg/kg/day + 0.5% MC,2.9
same,MORT (Mortality),LAQ 5 mg/kg/day + 0.5% MC,0/15
same,Onset,LAQ 5 mg/kg/day + 0.5% MC,15.0 days
